Laboratory results from the supplement of paper PMC9512659.

How the values were obtained:
[1] = system: Mycobacterium tuberculosis Erdman (pMV306hsp+LuxG13); assay: AUC25, normalised area under the dose-response curve up to IC25 (normalised AUC (unitless)); higher = more potent
Description: (§1)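 DiaMOND pairwise dose responses of an equipotent two-drug mixture (1.5-fold, 10-dose series) against autoluminescent M. tuberculosis Erdman in 384-well plates. Growth inhibition was read by OD600 (luminescence for dormancy) in seven media at a constant and a terminal time point; metrics are means of at least biological duplicates. Einf and AUC25 higher = more potent; GRinf lower = more potent; log2FIC negative = synergy.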

[2] = system: Mycobacterium tuberculosis Erdman (pMV306hsp+LuxG13); assay: log2 fractional inhibitory concentration at 50% inhibition (log2 FIC); higher = more antagonistic
Description: as §1

[3] = system: Mycobacterium tuberculosis Erdman (pMV306hsp+LuxG13); assay: log2 fractional inhibitory concentration at 90% inhibition (log2 FIC); higher = more antagonistic
Description: as §1

[4] = system: Mycobacterium tuberculosis Erdman (pMV306hsp+LuxG13); assay: Einf, effect of the drug pair at infinite dose (maximum growth inhibition) (fraction inhibition (0-1)); higher = more potent; extreme values may be limits of the assay
Description: as §1

[5] = system: Mycobacterium tuberculosis Erdman (pMV306hsp+LuxG13); assay: GRinf, normalised growth-rate inhibition at infinite dose (GR value (unitless, negative = killing)); higher = less potent
Description: as §1

NNC(=O)c1ccncc1 [isoniazid] + CC(C)=CCC/C(C)=C/CNCCNC1C2CC3CC(C2)CC1C3 [SQ109]
Conditions | AUC25, [1] | Einf, [4] | GRinf, [5] | log2 fractional inhibitory concentration, [2] | log2 fractional inhibitory concentration, [3]
growth medium: butyrate 5 mM, time point: constant time point | 0.0624 | 0.897 | 0.0429 | 0.35 | –
growth medium: butyrate 5 mM, time point: terminal time point | 0.0434 | 0.944 | 0.0572 | 0.29 | 0.00828
growth medium: cholesterol 0.05 mM, time point: constant time point | 0.1 | 0.84 | -0.682 | 1.02 | –
growth medium: cholesterol 0.2 mM (cholesterol-high), time point: constant time point | 0.0635 | 0.999 | -0.997 | 0.5 | 0.434
growth medium: cholesterol 0.2 mM (cholesterol-high), time point: terminal time point | 0.0743 | 1 | -0.87 | 0.189 | 0.311
growth medium: standard 7H9 OADC glycerol, time point: constant = terminal time point (4.2 d) | 0.0551 | 0.858 | 0.218 | 0.45 | –
growth medium: valerate 0.1%, time point: constant time point | 0.0611 | 0.964 | -0.00837 | 0.052 | 0.14
growth medium: valerate 0.1%, time point: terminal time point | 0.0646 | 0.968 | -0.0113 | 0.109 | 0.00427

growth medium: hypoxic dormancy (butyrate + nitrate), then recovery
Conditions | AUC25, [1] | Einf, [4] | GRinf, [5] | log2 fractional inhibitory concentration, [2] | log2 fractional inhibitory concentration, [3]
time point: constant time point | 0.0841 | 0.994 | -0.408 | -0.42 | 0.0195
time point: terminal time point | 0.0403 | 0.96 | 0.13 | -0.641 | -0.76

COc1nc2ccc(Br)cc2cc1[C@@H](c1ccccc1)[C@@](O)(CCN(C)C)c1cccc2ccccc12 [bedaquiline] + CC(=O)NC[C@H]1CN(c2ccc(N3CCSCC3)c(F)c2)C(=O)O1 [sutezolid]
Conditions | AUC25, [1] | Einf, [4] | GRinf, [5] | log2 fractional inhibitory concentration, [2] | log2 fractional inhibitory concentration, [3]
growth medium: acidic pH 5.7, glycerol, time point: constant time point | 0.107 | 0.875 | -0.198 | -0.156 | –
growth medium: acidic pH 5.7, glycerol, time point: terminal time point | 0.0983 | 0.978 | -0.241 | -0.088 | -0.436
growth medium: butyrate 5 mM, time point: constant time point | 0.0619 | 0.885 | 0.0684 | 2.21 | –
growth medium: butyrate 5 mM, time point: terminal time point | 0.0554 | 0.949 | 0.0372 | 2.08 | 0.353
growth medium: cholesterol 0.05 mM, time point: constant time point | 0.0778 | 1 | -0.927 | 0.352 | 0.332
growth medium: cholesterol 0.05 mM, time point: terminal time point | 0.132 | 1 | -0.972 | -0.0748 | 0.434
growth medium: cholesterol 0.2 mM (cholesterol-high), time point: constant time point | 0.0763 | 1 | -1 | -0.0255 | 0.279
growth medium: cholesterol 0.2 mM (cholesterol-high), time point: terminal time point | 0.115 | 1 | -0.792 | -0.681 | 0.315
growth medium: standard 7H9 OADC glycerol, time point: constant = terminal time point (4.2 d) | 0.048 | 0.977 | -0.0902 | -0.344 | -1.24
growth medium: valerate 0.1%, time point: constant time point | 0.0485 | 0.864 | -0.287 | 1.21 | –
growth medium: valerate 0.1%, time point: terminal time point | 0.09 | 0.991 | -0.176 | 0.264 | 0.567

growth medium: hypoxic dormancy (butyrate + nitrate), then recovery
Conditions | AUC25, [1] | Einf, [4] | GRinf, [5] | log2 fractional inhibitory concentration, [2] | log2 fractional inhibitory concentration, [3]
time point: constant time point | 0.0577 | 0.989 | 0.17 | -0.353 | -0.371
time point: terminal time point | 0.0431 | 0.975 | 0.359 | 0.424 | -0.465

NC(=O)c1cnccn1 [pyrazinamide] + CC(=O)NC[C@H]1CN(c2ccc(N3CCSCC3)c(F)c2)C(=O)O1 [sutezolid]
Conditions | AUC25, [1] | Einf, [4] | GRinf, [5] | log2 fractional inhibitory concentration, [2] | log2 fractional inhibitory concentration, [3]
growth medium: acidic pH 5.7, glycerol, time point: constant time point | 0.128 | 0.818 | -0.0805 | -0.856 | –
growth medium: acidic pH 5.7, glycerol, time point: terminal time point | 0.124 | 0.99 | -0.272 | -0.292 | -0.518
growth medium: butyrate 5 mM, time point: constant time point | 0.0878 | 0.913 | 0.0976 | 0.557 | –
growth medium: butyrate 5 mM, time point: terminal time point | 0.0684 | 0.949 | 0.124 | – | –
growth medium: cholesterol 0.05 mM, time point: constant time point | 0.0696 | 1 | -1 | 0.194 | –
growth medium: cholesterol 0.2 mM (cholesterol-high), time point: constant time point | 0.0979 | 0.996 | -0.785 | 0.242 | 0.258
growth medium: cholesterol 0.2 mM (cholesterol-high), time point: terminal time point | 0.105 | 1 | -0.929 | -0.145 | 0.207
growth medium: valerate 0.1%, time point: constant time point | 0.0804 | 0.884 | -0.147 | 0.999 | –
growth medium: valerate 0.1%, time point: terminal time point | 0.0613 | 0.962 | -0.0671 | 0.436 | –

growth medium: hypoxic dormancy (butyrate + nitrate), then recovery
Conditions | AUC25, [1] | Einf, [4] | GRinf, [5] | log2 fractional inhibitory concentration, [2]
time point: constant time point | 0.0726 | 0.984 | -0.401 | –
time point: terminal time point | 0.0286 | 0.786 | -0.5 | 0.898

CO[C@H]1/C=C/O[C@@]2(C)Oc3c(C)c(O)c4c(O)c(c(/C=N/N5CCN(C)CC5)c(O)c4c3C2=O)NC(=O)/C(C)=C\C=C\[C@H](C)[C@H](O)[C@@H](C)[C@@H](O)[C@@H](C)[C@H](OC(C)=O)[C@@H]1C [rifampicin] + CC(C)=CCC/C(C)=C/CNCCNC1C2CC3CC(C2)CC1C3 [SQ109]
Conditions | AUC25, [1] | Einf, [4] | GRinf, [5] | log2 fractional inhibitory concentration, [2] | log2 fractional inhibitory concentration, [3]
growth medium: butyrate 5 mM, time point: constant time point | 0.0902 | 0.914 | -0.0141 | 0.188 | –
growth medium: butyrate 5 mM, time point: terminal time point | 0.0763 | 0.959 | -0.032 | 0.0743 | -0.456
growth medium: cholesterol 0.2 mM (cholesterol-high), time point: constant time point | 0.03 | 0.992 | -0.905 | 0.231 | -0.46
growth medium: cholesterol 0.2 mM (cholesterol-high), time point: terminal time point | 0.0325 | 0.999 | -0.83 | 0.286 | -0.383
growth medium: standard 7H9 OADC glycerol, time point: constant = terminal time point (4.2 d) | 0.0536 | 0.909 | 0.0752 | 0.0639 | –
growth medium: valerate 0.1%, time point: constant time point | 0.0301 | 0.956 | 0.0222 | -0.112 | -0.583
growth medium: valerate 0.1%, time point: terminal time point | 0.0271 | 0.962 | 0.0133 | -0.128 | -0.625

growth medium: hypoxic dormancy (butyrate + nitrate), then recovery
Conditions | AUC25, [1] | Einf, [4] | GRinf, [5] | log2 fractional inhibitory concentration, [2] | log2 fractional inhibitory concentration, [3]
time point: constant time point | 0.0556 | 0.984 | -0.371 | -1.51 | -1.97
time point: terminal time point | 0.0342 | 0.964 | 0.12 | -0.863 | -1.05
